Like-named read-outs stand apart in the source and are kept apart here.
Key:
[1] = target: P. falciparum apicoplast DNA polymerase (Pf-apPOL) (Plasmodium falciparum, UniProt Q8ILY1); experiment: Fluorescence-based high-throughput DNA polymerase assay (molecular beacon), primary screen and dose-response; format: biochemical; settings: for DNA Pol: 90 min, 10 µM; for % inhibition Apo pol 10' 2.5 / % inhibition Apo pol 10' 5 / % inhibition Apo pol 10' 10 / % inhibition Apo pol 10' 20 / % inhibition Apo pol 10' 40 / % inhibition Apo pol 10' 80: read at 10'; for % inhibition Apol 90' 2.5 / % inhibition Apol 90' 5 / % inhibition Apol 90' 10 / % inhibition Apol 90' 20 / % inhibition Apol 90' 40 / % inhibition Apol 90' 80 / % inhibition ApPOL 90' 2.5 / % inhibition ApPOL 90' 5 / % inhibition ApPOL 90' 10 / % inhibition ApPOL 90' 20 / % inhibition ApPOL 90' 40 / % inhibition ApPOL 90' 80: read at 90'; for % inhibition apPOL 180' 2.5 / % inhibition apPOL 180' 5 / % inhibition apPOL 180' 10 / % inhibition apPOL 180' 20 / % inhibition apPOL 180' 40 / % inhibition apPOL 180' 80: read at 180'; for % inhibition Apo pol 5' 2.5 / % inhibition Apo pol 5' 5 / % inhibition Apo pol 5' 10 / % inhibition Apo pol 5' 20 / % inhibition Apo pol 5' 40 / % inhibition Apo pol 5' 80: read at 5'; for % inhibition Apol 40' 2.5 / % inhibition Apol 40' 5 / % inhibition Apol 40' 10 / % inhibition Apol 40' 20 / % inhibition Apol 40' 40 / % inhibition Apol 40' 80: read at 40'
Procedure, shortened: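 Single-point screening used 10 µM compound with 20 nM polymerase, 20 nM hairpin substrate and 6 µM dNTPs for 90 min at 25 °C. Confirmatory titrations (2.5–80 µM) followed fluorescence at three times, and IC50 was derived from a fit including a cooperativity term n.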

[2] = test system: chloroquine resistant P. falciparum parasites (strain Dd2); experiment: Parasite growth inhibition assay in human red blood cells (flow cytometry, acridine orange); format: cell-based; settings: Plasmodium falciparum, Erythrocyte
Method: The chloroquine resistant P. falciparum parasites (strain Dd2) were cultured in de-identified, IRB-exempt human red blood cells (RBCs) obtained from the American Red Cross and parasite cultures were maintained as described. Parasitaemia (percentage of total RBCs infected) was measured by flow cytometry on an Attune NxT (ThermoFisher) by nucleic-acid staining of cultured RBCs with phosphate-buffered saline (PBS) containing 0.8 µg ml^−1 acridine orange. We began by determining percent growth inhibition at single compound dose (20 µM) for the 102 non-toxic compounds. […] The experiments were initiated with a starting parasitaemia of ∼1% and parasitaemia was measured 72 and 96 h post compound addition. Growth was normalised to parasite cultures with carrier only (DMSO).
We tested the ability of the 102 compounds to kill P. falciparum parasites cultured in human red blood cells. Due to the number of compounds, we used a single inhibitor concentration of 20 µM and performed experiments in triplicate. […] These compounds were then tested in a dose-response format against chloroquine resistant P. falciparum parasites (Dd2) and the resulting data were fit to a sigmoidal growth inhibition curve to determine EC50 values (Figure 5, Table 2). […] Finally, to determine if the compounds were killing the parasites solely via apicoplast disruption, the dose-response curves were also performed with 1 mM isopentylpyrophosphate (IPP) in the growth media (Table 2). […] Very little is known regarding mitochondrial DNA replication in P. falciparum; however, signal sequence identification algorithms have predicted that the other bacterial A-family DNA polymerase residing in P. falciparum is targeted to the mitochondria (PF3D7_0625300)[29]. […] We are currently in the process of cloning and expressing this putative mitochondrial DNA polymerase to determine the effect of these compounds on its activity.

[3] = read-out: IC50 Pf-apPOL, Table 2
[4] = supplemental file 2, sheet IC50 nontoxic compounds, Pf-apPOL
[5] = Dd2 parasites in human RBCs, dose-response, no IPP, read-out: EC50
[6] = Dd2 parasites, 1 mM isopentylpyrophosphate (IPP) in the growth media, read-out: EC50 + IPP
[7] = 186 hits, DNA Pol (screen value), unit not given
[8] = 'DNA Pol' (screen value), unit not given

P. falciparum apicoplast DNA polymerase (Pf-apPOL), sequence (Q8ILY1 entry or part of it): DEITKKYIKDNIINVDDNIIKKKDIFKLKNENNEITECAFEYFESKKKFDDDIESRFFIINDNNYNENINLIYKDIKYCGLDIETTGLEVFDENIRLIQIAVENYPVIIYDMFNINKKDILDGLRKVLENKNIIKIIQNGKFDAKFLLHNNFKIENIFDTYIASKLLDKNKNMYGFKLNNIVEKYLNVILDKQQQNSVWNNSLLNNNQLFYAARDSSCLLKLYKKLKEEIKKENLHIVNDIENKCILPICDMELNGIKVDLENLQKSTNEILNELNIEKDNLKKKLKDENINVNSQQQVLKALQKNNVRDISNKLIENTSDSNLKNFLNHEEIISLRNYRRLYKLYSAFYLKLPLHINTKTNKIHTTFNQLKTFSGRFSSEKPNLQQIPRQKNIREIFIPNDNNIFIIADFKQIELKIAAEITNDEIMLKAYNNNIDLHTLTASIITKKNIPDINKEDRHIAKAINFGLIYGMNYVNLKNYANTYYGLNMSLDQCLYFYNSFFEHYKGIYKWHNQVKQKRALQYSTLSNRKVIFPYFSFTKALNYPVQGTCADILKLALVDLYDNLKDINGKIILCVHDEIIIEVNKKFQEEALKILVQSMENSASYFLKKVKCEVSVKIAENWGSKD

## COc1ccc(CNC(=O)Cn2nc3c(c2NC(=O)Cc2cccs2)CSC3)cc1 [Molecule 55]
[1]; [3]
  IC50: 10 ± 2 µM
[1]; [4]
  IC50: 10.5 µM
[2]; [5]
  EC50: 3.5 ± 0.3 µM
[2]; [6]
  EC50: 4.3 ± 0.2 µM

## OC(C#Cc1ccccc1)c1ccco1 (centres unmarked) [Molecule 95]
[1]; [3]
  IC50: 7.4 ± 0.4 µM
[1]; [4]
  IC50: 7.4 µM
[2]; [5]
  EC50: 7.5 ± 0.5 µM
[2]; [6]
  EC50: 7.4 ± 0.4 µM

## Cc1cc2[nH]c(C(=O)Nc3ccc(F)cc3)c(CN3CCOCC3)c2s1 [Molecule 60, Fc1ccc(cc1)NC(=O)c1[nH]c2c(c1CN1CCOCC1)sc(c2)C]
[1]; [7]
  DNA Pol: 24
[1]; [8]
  DNA Pol: 24
[1]; DRC-1, concentration 2.5
  % inhibition Apo pol 10' 2.5: -2.4883%
  % inhibition Apol 90' 2.5: -5.041%
  % inhibition apPOL 180' 2.5: -7.929%
[1]; DRC-1, concentration 5
  % inhibition Apo pol 10' 5: 6.203%
  % inhibition Apol 90' 5: 0.952%
  % inhibition apPOL 180' 5: -4.0377%
[1]; DRC-1, concentration 10
  % inhibition Apo pol 10' 10: 25.0572%
  % inhibition Apol 90' 10: 13.5518%
  % inhibition apPOL 180' 10: 4.226%
[1]; DRC-1, concentration 20
  % inhibition Apo pol 10' 20: 44.6815%
  % inhibition Apol 90' 20: 29.567%
  % inhibition apPOL 180' 20: 14.1958%
[1]; DRC-1, concentration 40
  % inhibition Apo pol 10' 40: 69.9494%
  % inhibition Apol 90' 40: 56.5635%
  % inhibition apPOL 180' 40: 39.4222%
[1]; DRC-1, concentration 80
  % inhibition Apo pol 10' 80: 76.8011%
  % inhibition Apol 90' 80: 73.0205%
  % inhibition apPOL 180' 80: 63.0707%
[1]; DRC-2, concentration 40
  % inhibition Apo pol 5': 38%
  % inhibition Apo pol 5' 40: 38%
  % inhibition Apol 40' 40: 57%
  % inhibition ApPOL 90' 40: 59%
  % inhibition apPOL 180' 40: 53%
[1]; DRC-2, concentration 20
  % inhibition ApPOL 90': 38%
  % inhibition Apo pol 5' 20: 33%
  % inhibition Apol 40' 20: 40%
  % inhibition ApPOL 90' 20: 38%
  % inhibition apPOL 180' 20: 28%
[1]; DRC-2, concentration 2.5
  % inhibition Apo pol 5' 2.5: -2.34%
  % inhibition Apol 40' 2.5: 0.384%
  % inhibition ApPOL 90' 2.5: 0.312%
  % inhibition apPOL 180' 2.5: -2.7%
[1]; DRC-2, concentration 5
  % inhibition Apo pol 5' 5: 3.5%
  % inhibition Apol 40' 5: 3.72%
  % inhibition ApPOL 90' 5: 2.6%
  % inhibition apPOL 180' 5: -0.247%
[1]; DRC-2, concentration 10
  % inhibition Apo pol 5' 10: 20%
  % inhibition Apol 40' 10: 21%
  % inhibition ApPOL 90' 10: 18%
  % inhibition apPOL 180' 10: 11%
[1]; DRC-2, concentration 80
  % inhibition Apo pol 5' 80: 36%
  % inhibition Apol 40' 80: 60%
  % inhibition ApPOL 90' 80: 65%
  % inhibition apPOL 180' 80: 66%

## Cc1ccc(C)n1-c1ccc(C(=O)NNC(=O)c2ccc3nccnc3c2)cc1 [Molecule 53, O=C(c1ccc(cc1)n1c(C)ccc1C)NNC(=O)c1ccc2c(c1)nccn2]
[1]; "DNA Pol" of the 186 hits list (screen value)
  DNA Pol: 84
[1]; DRC-1, concentration 2.5
  % inhibition Apo pol 10': 0.1394%
  % inhibition Apol 90': -3.841%
  % inhibition apPOL 180': -5.424%
[1]; DRC-1, concentration 5
  % inhibition Apo pol 10': 8.124%
  % inhibition Apol 90': -1.933%
  % inhibition apPOL 180': -7.03%
[1]; DRC-1, concentration 10
  % inhibition Apo pol 10': 19.7971%
  % inhibition Apol 90': 7.019%
  % inhibition apPOL 180': 0.2997%
[1]; DRC-1, concentration 20
  % inhibition Apo pol 10': 46.3145%
  % inhibition Apol 90': 31.5983%
  % inhibition apPOL 180': 17.1559%
[1]; DRC-1, concentration 40
  % inhibition Apo pol 10': 80.1476%
  % inhibition Apol 90': 69.8424%
  % inhibition apPOL 180': 57.2023%
[1]; DRC-1, concentration 80
  % inhibition Apo pol 10': 83.7947%
  % inhibition Apol 90': 79.5478%
  % inhibition apPOL 180': 72.0846%
[1]; DRC-2, concentration 2.5
  % inhibition Apo pol 5': 0%
  % inhibition Apol 40': 3.18%
  % inhibition ApPOL 90': 0.241%
  % inhibition apPOL 180': -1.53%
[1]; DRC-2, concentration 5
  % inhibition Apo pol 5': 1.67%
  % inhibition Apol 40': 2%
  % inhibition ApPOL 90': 1.15%
  % inhibition apPOL 180': -2.77%
[1]; DRC-2, concentration 10
  % inhibition Apo pol 5': 25%
  % inhibition Apol 40': 23%
  % inhibition ApPOL 90': 18%
  % inhibition apPOL 180': 10%
[1]; DRC-2, concentration 20
  % inhibition Apo pol 5': 46%
  % inhibition Apol 40': 50%
  % inhibition ApPOL 90': 47%
  % inhibition apPOL 180': 37%
[1]; DRC-2, concentration 40
  % inhibition Apo pol 5': 55%
  % inhibition Apol 40': 64%
  % inhibition ApPOL 90': 64%
  % inhibition apPOL 180': 56%
[1]; DRC-2, concentration 80
  % inhibition Apo pol 5': 57%
  % inhibition Apol 40': 72%
  % inhibition ApPOL 90': 74%
  % inhibition apPOL 180': 73%
[1]; primary screen value, DNA Pol
  DNA Pol: 84

## O=C1CSC2=NC3=C(CCc4ccccc43)C(c3cccs3)N12 (centres unmarked) [Molecule 59, O=C1CSC2=NC3=C(C(N12)c1cccs1)CCc1c3cccc1]
[1]; [7]
  DNA Pol: 63
[1]; [8]
  DNA Pol: 63
[1]; DRC-1, concentration 2.5
  % inhibition Apo pol 10' 2.5: 4.043%
  % inhibition Apol 90' 2.5: -1.656%
  % inhibition apPOL 180' 2.5: -6.428%
[1]; DRC-1, concentration 5
  % inhibition Apo pol 10' 5: 24.0896%
  % inhibition Apol 90' 5: 10.7696%
  % inhibition apPOL 180' 5: -0.2424%
[1]; DRC-1, concentration 10
  % inhibition Apo pol 10' 10: 41.1279%
  % inhibition Apol 90' 10: 22.0098%
  % inhibition apPOL 180' 10: 9.04%
[1]; DRC-1, concentration 20
  % inhibition Apo pol 10' 20: 53.1812%
  % inhibition Apol 90' 20: 35.5266%
  % inhibition apPOL 180' 20: 18.673%
[1]; DRC-1, concentration 40
  % inhibition Apo pol 10' 40: 67.0288%
  % inhibition Apol 90' 40: 60.0258%
  % inhibition apPOL 180' 40: 46.5795%
[1]; DRC-1, concentration 80
  % inhibition Apo pol 10' 80: 63.2791%
  % inhibition Apol 90' 80: 67.4831%
  % inhibition apPOL 180' 80: 61.292%
[1]; DRC-2, concentration 10
  % inhibition Apo pol 5': 28%
  % inhibition Apol 40': 28%
  % inhibition Apo pol 5' 10: 28%
  % inhibition Apol 40' 10: 28%
  % inhibition ApPOL 90' 10: 22%
  % inhibition apPOL 180' 10: 11%
[1]; DRC-2, concentration 40
  % inhibition Apol 40': 45%
  % inhibition ApPOL 90': 45%
  % inhibition Apo pol 5' 40: 31%
  % inhibition Apol 40' 40: 45%
  % inhibition ApPOL 90' 40: 45%
  % inhibition apPOL 180' 40: 38%
[1]; DRC-2, concentration 2.5
  % inhibition Apo pol 5' 2.5: 3.73%
  % inhibition Apol 40' 2.5: 3%
  % inhibition ApPOL 90' 2.5: -1.13%
  % inhibition apPOL 180' 2.5: -8%
[1]; DRC-2, concentration 5
  % inhibition Apo pol 5' 5: 15%
  % inhibition Apol 40' 5: 14%
  % inhibition ApPOL 90' 5: 10%
  % inhibition apPOL 180' 5: 2.64%
[1]; DRC-2, concentration 20
  % inhibition Apo pol 5' 20: 33%
  % inhibition Apol 40' 20: 39%
  % inhibition ApPOL 90' 20: 35%
  % inhibition apPOL 180' 20: 24%
[1]; DRC-2, concentration 80
  % inhibition Apo pol 5' 80: 23%
  % inhibition Apol 40' 80: 48%
  % inhibition ApPOL 90' 80: 52%
  % inhibition apPOL 180' 80: 55%

Reference: PMC9090415, “Discovery of small molecule inhibitors of Plasmodium falciparum apicoplast DNA polymerase” (Journal of Enzyme Inhibition and Medicinal Chemistry, 2022)
